The record followed here is patent publication US12655125B2 (SIRONAX LTD., priority 2020, dated 2026).

Structures are written as SMILES.

This test deals with HT-29 cells. The test can be described thus: HT29 Cells 0FBS Assay In Vitro (TNF-α/SMAC mimetic/zVAD-FMK induced necroptosis, CellTiter-Glo cell viability). The test is classed as cell-based. The settings on record: Homo sapiens; HT-29 cells, FBS free medium, TNF-α (10 ng/ml), SMAC mimetic (6 uM), zVAD-FMK (10 μM), 20 hours; geometric mean EC50; read-out: Cell activity (EC50) of Compounds 117-281. The method in brief:
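Viability was measured by ATP luminescence (CellTiter-Glo) after 20 h at 37° C of compound exposure in 10-point, 1:3 dilutions. Necroptosis in FBS-free HT-29 cultures was driven by a TNF-α (10 ng/ml), SMAC mimetic (6 μM) and zVAD-FMK (10 μM) cocktail. EC50 values are geometric means from duplicate curves.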
`Cc1nn(-c2cc(OC3CN(C(=O)N4N=CC[C@H]4c4cc(F)cc(F)c4)C3)c(F)cn2)c(C)c1CN(C)C` [compound 269, (S)-(5-(3,5-difluorophenyl)-4,5-dihydro-1H-pyrazol-1-yl)(3-((2-(4-((dimethylamino)methyl)-3,5-dimethyl-1H-pyrazol-1-yl)-5-fluoropyridin-4-yl)oxy)azetidin-1-yl)methanone]: the EC50 lay within 0.0001 to 0.1 µM.

In the case of `Cc1nn(-c2cc(OC3CN(C(=O)N4N=CC[C@H]4c4cc(F)cc(F)c4)C3)c(F)cn2)c(C)c1N1CCCC1=O` [compound 270, (S)-1-(1-(4-((1-(5-(3,5-difluorophenyl)-4,5-dihydro-1H-pyrazole-1-carbonyl)azetidin-3-yl)oxy)-5-fluoropyridin-2-yl)-3,5-dimethyl-1H-pyrazol-4-yl)pyrrolidin-2-one], the EC50 is 0.0001 to 0.1 µM.

`Cc1nn(-c2cc(OC3CN(C(=O)N4N=CC[C@H]4c4cc(F)cc(F)c4)C3)c(F)cn2)c(C)c1CC#N` [compound 271, (S)-2-(1-(4-((1-(5-(3,5-difluorophenyl)-4,5-dihydro-1H-pyrazole-1-carbonyl)azetidin-3-yl)oxy)-5-fluoropyridin-2-yl)-3,5-dimethyl-1H-pyrazol-4-yl)acetonitrile]: the EC50 was in the range of 0.0001 to 0.1 µM.

As for `Cc1nn(-c2cc(OC3CN(C(=O)N4N=CC[C@H]4c4cc(F)cc(F)c4)C3)c(F)cn2)cc1C(N)=O` [compound 272, (S)-1-(4-((1-(5-(3,5-difluorophenyl)-4,5-dihydro-1H-pyrazole-1-carbonyl)azetidin-3-yl)oxy)-5-fluoropyridin-2-yl)-3-methyl-11H-pyrazole-4-carboxamide], the EC50 was 0.0001 to 0.1 µM.

In the case of `Cc1c(C(N)=O)cnn1-c1cc(OC2CN(C(=O)N3N=CC[C@H]3c3cc(F)cc(F)c3)C2)c(F)cn1` [compound 273, (S)-1-(4-((1-(5-(3,5-difluorophenyl)-4,5-dihydro-1H-pyrazole-1-carbonyl)azetidin-3-yl)oxy)-5-fluoropyridin-2-yl)-5-methyl-1H-pyrazole-4-carboxamide], the EC50 was 0.0001 to 0.1 µM.

Regarding `Cc1nn(-c2cc(OC3CN(C(=O)N4N=CC[C@H]4c4cc(F)cc(F)c4)C3)c(F)cn2)c(C)c1CN1CCCC1=O` [compound 274, (S)-1-((1-(4-((1-(5-(3,5-difluorophenyl)-4,5-dihydro-1H-pyrazole-1-carbonyl)azetidin-3-yl)oxy)-5-fluoropyridin-2-yl)-3,5-dimethyl-11H-pyrazol-4-yl)methyl)pyrrolidin-2-one], the EC50 lay in the range of 0.0001 to 0.1 µM.

Regarding `Cc1nn(-c2ccc(F)c(OC3CN(C(=O)N4N=CC[C@H]4c4cc(F)cc(F)c4)C3)n2)c(C)c1C(N)=O` [compound 275], the concentration giving a half-maximal response (EC50) lay in the range of 0.0001 to 0.1 µM.

On to `Cc1nn(-c2ncc(F)c(OC3CN(C(=O)N4N=CC[C@H]4c4cc(F)cc(F)c4)C3)n2)c(C)c1C(N)=O` [compound 276, (S)-1-(4-((1-(5-(3,5-difluorophenyl)-4,5-dihydro-1H-pyrazole-1-carbonyl)azetidin-3-yl)oxy)-5-fluoropyrimidin-2-yl)-3,5-dimethyl-1H-pyrazole-4-carboxamide], for which the EC50 fell in the range of 0.0001 to 0.1 µM.

Regarding `[2H]C1(c2cc(F)cc(F)c2)CC=NN1C(=O)N1CC(Oc2cc(-n3nc(C)c(C(N)=O)c3C)ncc2F)C1` (stereo not shown) [compound 277, 1-(4-((1-(5-(3,5-difluorophenyl)-4,5-dihydro-1H-pyrazole-1-carbonyl-5-d)azetidin-3-yl)oxy)-5-fluoropyridin-2-yl)-3,5-dimethyl-1H-pyrazole-4-carboxamide], the EC50 was in the range of 0.0001 to 0.1 µM.

With `Cc1nn(-c2cc(OC3CN(C(=O)N4N=CC[C@H]4c4cc(F)cc(F)c4)C3)c(F)cn2)c(C)c1CC(=O)O` [compound 278, (S)-2-(1-(4-((1-(5-(3,5-difluorophenyl)-4,5-dihydro-1H-pyrazole-1-carbonyl)azetidin-3-yl)oxy)-5-fluoropyridin-2-yl)-3,5-dimethyl-1H-pyrazol-4-yl)acetic acid], the concentration for a half-maximal effect (EC50) lay within 0.1 to 1 µM.

For `Cc1nn(-c2cc(OC3CN(C(=O)N4N=CC[C@H]4c4cc(F)cc(F)c4)C3)c(F)cn2)c(C)c1C(C)(C)C(=O)O` [compound 279, (S)-2-(1-(4-((1-(5-(3,5-difluorophenyl)-4,5-dihydro-1H-pyrazole-1-carbonyl)azetidin-3-yl)oxy)-5-fluoropyridin-2-yl)-3,5-dimethyl-1H-pyrazol-4-yl)-2-methylpropanoic acid], the EC50 was in the range of 0.1 to 1 µM.

As for `Cc1nn(-c2cc(OC3CN(C(=O)N4N=CC[C@H]4c4cc(F)cc(F)c4)C3)c(F)cn2)c(C)c1C(C)(C)C(N)=O` [compound 280, (S)-2-(1-(4-((1-(5-(3,5-difluorophenyl)-4,5-dihydro-1H-pyrazole-1-carbonyl)azetidin-3-yl)oxy)-5-fluoropyridin-2-yl)-3,5-dimethyl-1H-pyrazol-4-yl)-2-methylpropanamide], the EC50 was 0.0001 to 0.1 µM.

In the case of `CCc1nn(-c2cc(OC3CN(C(=O)N4N=CC[C@H]4c4cc(F)cc(F)c4)C3)c(F)cn2)c(C)c1C(N)=O` [compound 281, (S)-1-(4-((1-(5-(3,5-difluorophenyl)-4,5-dihydro-1H-pyrazole-1-carbonyl)azetidin-3-yl)oxy)-5-fluoropyridin-2-yl)-3-ethyl-5-methyl-1H-pyrazole-4-carboxamide], the EC50 was 0.0001 to 0.1 µM.
